# Several values for one entry are separate records, joined by “and”; a condition that tells them apart may be missing. Equal entries are not always repeated. Toxic doses and inconclusive results are not listed.
# Test system: BDF1 mice, B16 melanoma ip, median survival T/C
# Assay: NCI In Vivo Anticancer Drug Screen. Data for tumor model B16 Melanoma (intraperitoneal) in B6D2F1 (BDF1) mice
# Conditions: endpoint: median survival time, higher = longer survival
# How it was run: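 Read-out: survival or tumor size, given as treated/control ratio. Controls received vehicle only; animals bore transplantable tumors.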
# [1] = dose: 12.5 mg/kg/injection, schedule: Q01DX009 (ip), vehicle: saline
# [2] = dose: 25.0 mg/kg/injection, schedule: Q01DX009 (ip), vehicle: saline
# [3] = dose: 50.0 mg/kg/injection, schedule: Q01DX009 (ip), vehicle: saline
# [4] = dose: 100.0 mg/kg/injection, schedule: Q01DX009 (ip), vehicle: Klucel (hydroxypropylcellulose) (HPC)
# [5] = dose: 200.0 mg/kg/injection, schedule: Q01DX009 (ip), vehicle: Klucel (hydroxypropylcellulose) (HPC)
# [6] = dose: 400.0 mg/kg/injection, schedule: Q01DX009 (ip), vehicle: Klucel (hydroxypropylcellulose) (HPC)
# [7] = dose: 25.0 mg/kg/injection, schedule: Q01DX009 (ip), vehicle: saline with Tween-80
# [8] = dose: 50.0 mg/kg/injection, schedule: Q01DX009 (ip), vehicle: saline with Tween-80
# [9] = dose: 100.0 mg/kg/injection, schedule: Q01DX009 (ip), vehicle: saline with Tween-80
# [10] = dose: 100.0 mg/kg/injection, schedule: Q04DX003 (ip), vehicle: Klucel (hydroxypropylcellulose) (HPC)
# [11] = dose: 200.0 mg/kg/injection, schedule: Q04DX003 (ip), vehicle: Klucel (hydroxypropylcellulose) (HPC)
# [12] = dose: 1.56 mg/kg/injection, schedule: Q01DX009 (ip), vehicle: saline
# [13] = dose: 50.0 mg/kg/injection, schedule: Q01DX009 (ip), vehicle: Klucel (hydroxypropylcellulose) (HPC)
# [14] = dose: 400.0 mg/kg/injection, schedule: Q04DX003 (ip), vehicle: Klucel (hydroxypropylcellulose) (HPC)
# [15] = dose: 25.0 mg/kg/injection, schedule: Q01DX009 (ip), vehicle: Klucel (hydroxypropylcellulose) (HPC)
structure (smiles),measurement,setting,value
C=CC12COC(=O)C(=C)C1C1OC(=O)C(=C)C1C(O)C2 (configuration not stated),T/C,"dose: 0.93 mg/kg/injection, schedule: Q01DX009 (ip), vehicle: Klucel (hydroxypropylcellulose) (HPC)",95 % of control
same,T/C,"dose: 1.87 mg/kg/injection, schedule: Q01DX009 (ip), vehicle: Klucel (hydroxypropylcellulose) (HPC)",104 % of control
same,T/C,"dose: 3.75 mg/kg/injection, schedule: Q01DX009 (ip), vehicle: Klucel (hydroxypropylcellulose) (HPC)",101 % of control
same,T/C,"dose: 7.5 mg/kg/injection, schedule: Q01DX009 (ip), vehicle: Klucel (hydroxypropylcellulose) (HPC)",98 % of control
COc1cc(C(=O)OC(C)CN2CCN(C(=O)c3cc(OC)c(OC)c(OC)c3)CC2)cc(OC)c1OC (configuration not stated),T/C,[1],116 % of control
same,T/C,[2],105 % of control
same,T/C,[3],100 % of control
same,T/C,"dose: 100.0 mg/kg/injection, schedule: Q01DX009 (ip), vehicle: saline",110 % of control
CCCCCCCCCCCCNC(=O)Nc1cccc(C)c1C,T/C,[4],100 % of control
same,T/C,[5],100 % of control
same,T/C,[6],96 % of control
COc1cccc(CN2CCCNCC2)c1,T/C,"dose: 6.25 mg/kg/injection, schedule: Q01DX009 (ip), vehicle: water",102 % of control
same,T/C,"dose: 12.5 mg/kg/injection, schedule: Q01DX009 (ip), vehicle: water",115 % of control
same,T/C,"dose: 25.0 mg/kg/injection, schedule: Q01DX009 (ip), vehicle: water",114 % of control
same,T/C,"dose: 50.0 mg/kg/injection, schedule: Q01DX009 (ip), vehicle: water",100 % of control
O=C(CC(NC(=O)OCc1ccccc1)C(=O)O)OCc1ccccc1 (configuration not stated),T/C,[7],93 % of control
same,T/C,[8],104 % of control
same,T/C,[4],102 % of control
same,T/C,[9],102 % of control
same,T/C,[5],106 % of control
same,T/C,"dose: 200.0 mg/kg/injection, schedule: Q01DX009 (ip), vehicle: saline with Tween-80",87 % of control
COC(=O)C1(C(=O)OC)CCCCC1=O,T/C,[10],93 % of control
same,T/C,[11],94 % of control
COc1ccccc1NC(=O)Nc1cccc(C)c1C,T/C,[4],87 % of control
same,T/C,[5],86 % of control
Cc1ccc2c(ccc(/C=C\c3cc(C)c4cccnc4c3O)[n+]2C)c1,T/C,[12],95 % of control
same,T/C,"dose: 3.13 mg/kg/injection, schedule: Q01DX009 (ip), vehicle: saline",95 % of control
same,T/C,"dose: 6.25 mg/kg/injection, schedule: Q01DX009 (ip), vehicle: saline",91 % of control
CCOC(=O)CN1CCC(C2(c3cc4ccccc4[nH]3)OCCO2)CC1,T/C,[13],105 % of control
same,T/C,[4],93 % of control
same,T/C,[5],99 % of control
CCCCNC(C)C1(O)Cc2c(O)c3c(c(O)c2C(OC2CC(N)C(O)C(C)O2)C1)C(=O)c1c(OC)cccc1C3=O (configuration not stated),T/C,"dose: 50.0 mg/kg/injection, schedule: Q01DX001 (ip), vehicle: water",114 % of control and 181 % of control and 204 % of control
same,T/C,"dose: 100.0 mg/kg/injection, schedule: Q01DX001 (ip), vehicle: water",114 % of control and 263 % of control and 292 % of control
same,T/C,"dose: 200.0 mg/kg/injection, schedule: Q01DX001 (ip), vehicle: water",117 % of control and 217 % of control and 293 % of control
same,T/C,"dose: 400.0 mg/kg/injection, schedule: Q01DX001 (ip), vehicle: water",89 % of control
Cn1c(=O)[nH]c2nncnc2c1=O,T/C,"dose: 0.37 mg/kg/injection, schedule: Q01DX009 (ip), vehicle: water",99 % of control
same,T/C,"dose: 0.75 mg/kg/injection, schedule: Q01DX009 (ip), vehicle: water",118 % of control
same,T/C,"dose: 1.5 mg/kg/injection, schedule: Q01DX009 (ip), vehicle: water",103 % of control
same,T/C,"dose: 3.0 mg/kg/injection, schedule: Q01DX009 (ip), vehicle: water",99 % of control
CCOc1ccc(NC(=O)C2CCC(C)(C(=O)O)C2(C)C)cc1 (configuration not stated),T/C,"dose: 66.0 mg/kg/injection, schedule: Q01DX009 (ip), vehicle: saline with Tween-80",88 % of control
same,T/C,[9],100 % of control
same,T/C,"dose: 150.0 mg/kg/injection, schedule: Q01DX009 (ip), vehicle: saline with Tween-80",113 % of control
N#CC(CC(=O)c1ccc2c(c1)OCO2)c1ccc2c(c1)OCO2 (configuration not stated),T/C,[4],105 % of control
same,T/C,[5],101 % of control
same,T/C,[6],94 % of control
COC(=O)C1(C(=O)OC)C2C(=O)C3C(C21)C3(C(=O)OC(C)(C)C)C(=O)OC(C)(C)C (configuration not stated),T/C,[10],111 % of control
same,T/C,[11],101 % of control
same,T/C,[14],98 % of control
OC(CCl)Cc1ccccc1 (configuration not stated),T/C,[1],102 % of control
same,T/C,[2],95 % of control
same,T/C,[3],100 % of control
Cc1ccc(C(=O)CCl)c(C)c1,T/C,"dose: 12.5 mg/kg/injection, schedule: Q01DX009 (ip), vehicle: saline with Tween-80",90 % of control
same,T/C,[7],92 % of control
same,T/C,[8],95 % of control
Cc1cc(-c2ccc(N=Nc3ccc4c(S(=O)(=O)O)cc(S(=O)(=O)O)c(N)c4c3O)c(C)c2)ccc1N=Nc1ccc2c(S(=O)(=O)O)cc(S(=O)(=O)O)c(N)c2c1O,T/C,[1],121 % of control
CCOC(=O)c1ccc(NC(=O)Nc2nc(C)cs2)cc1,T/C,"dose: 25.0 mg/kg/injection, schedule: Q01DX009 (ip), vehicle: distilled water + Tween-80",111 % of control
same,T/C,"dose: 200.0 mg/kg/injection, schedule: Q01DX009 (ip), vehicle: distilled water + Tween-80",120 % of control
COC1C(O)C(C)OC(O[C@@H]2C[C@H]3CC[C@@H]4[C@H](CC[C@]5(C)[C@@H](C6=CC(=O)OC6)CC[C@]45O)[C@@]3(C)[C@H](O)C2)C1O (some centres not stated),T/C,"dose: 12.5 mg/kg/injection, schedule: Q01DX009 (ip), vehicle: Klucel (hydroxypropylcellulose) (HPC)",96 % of control
same,T/C,[15],87 % of control
same,T/C,[13],95 % of control
same,T/C,[4],98 % of control
Cc1cccc(C)c1NS(=O)(=O)c1ccc(Cl)cc1,T/C,[15],99 % of control
same,T/C,[13],97 % of control
same,T/C,[4],99 % of control and 104 % of control
same,T/C,[6],116 % of control
COc1c(C(C)(C)C)cc([N+](=O)[O-])c(C)c1[N+](=O)[O-],T/C,[10],100 % of control
same,T/C,[11],96 % of control
same,T/C,[14],87 % of control
Cc1cccc(C(=O)CC(O)(C(F)(F)F)C(F)(F)F)n1,T/C,"dose: 100.0 mg/kg/injection, schedule: Q04DX003 (ip), vehicle: saline with Tween-80",110 % of control
same,T/C,"dose: 200.0 mg/kg/injection, schedule: Q04DX003 (ip), vehicle: saline with Tween-80",100 % of control
same,T/C,"dose: 400.0 mg/kg/injection, schedule: Q04DX003 (ip), vehicle: saline with Tween-80",100 % of control
O=C(CCN1CC1)OCCOC(=O)CCN1CC1,T/C,"dose: 1.5 mg/kg/injection, schedule: Q01DX009 (ip), vehicle: saline",118 % of control
same,T/C,"dose: 3.0 mg/kg/injection, schedule: Q01DX009 (ip), vehicle: saline",110 % of control
C[CH2][Pb]([CH2]C)([CH2]C)[O]C(=O)c1ccc(N)cc1,T/C,"dose: 0.75 mg/kg/injection, schedule: Q01DX009 (ip), vehicle: Klucel (hydroxypropylcellulose) (HPC)",111 % of control
same,T/C,"dose: 1.5 mg/kg/injection, schedule: Q01DX009 (ip), vehicle: Klucel (hydroxypropylcellulose) (HPC)",111 % of control
same,T/C,"dose: 3.0 mg/kg/injection, schedule: Q01DX009 (ip), vehicle: Klucel (hydroxypropylcellulose) (HPC)",108 % of control
same,T/C,"dose: 6.0 mg/kg/injection, schedule: Q01DX009 (ip), vehicle: Klucel (hydroxypropylcellulose) (HPC)",111 % of control
same,T/C,"dose: 12.0 mg/kg/injection, schedule: Q01DX009 (ip), vehicle: Klucel (hydroxypropylcellulose) (HPC)",105 % of control
CC(C)(C)c1cc(C[P+](c2ccccc2)(c2ccccc2)c2ccccc2)cc(C(C)(C)C)c1O,T/C,"dose: 0.78 mg/kg/injection, schedule: Q01DX009 (ip), vehicle: saline",111 % of control
same,T/C,[12],109 % of control
same,T/C,"dose: 3.12 mg/kg/injection, schedule: Q01DX009 (ip), vehicle: saline",104 % of control
same,T/C,"dose: 3.25 mg/kg/injection, schedule: Q04DX003 (ip), vehicle: saline",94 % of control
same,T/C,"dose: 4.6 mg/kg/injection, schedule: Q01DX009 (ip), vehicle: saline",86 % of control
CCCCCCCCCCCC(c1ccccc1)[N+](C)(C)Cc1ccccc1 (configuration not stated),T/C,"dose: 0.25 mg/kg/injection, schedule: Q01DX009 (ip), vehicle: saline sonified",94 % of control
same,T/C,"dose: 0.5 mg/kg/injection, schedule: Q01DX009 (ip), vehicle: saline sonified",110 % of control
same,T/C,"dose: 1.0 mg/kg/injection, schedule: Q01DX009 (ip), vehicle: saline sonified",105 % of control
same,T/C,"dose: 2.0 mg/kg/injection, schedule: Q01DX009 (ip), vehicle: saline sonified",102 % of control

# Source: PubChem BioAssay AID192 (DTP/NCI, 2004)
